One molecule from PMC7054317, “Mammalian ALKBH1 serves as an N^6-mA demethylase of unpairing DNA” (Cell Research, 2020) can be followed below.

For one experiment, the target named is T1, ALKBH1_1–359 (mouse) (Mus musculus, UniProt P0CB42).
T1 construct: gene Alkbh1; C-terminally truncated, residues 1-359, His-tag removed with PreScission protease, E. coli BL21(DE3); residues 20-358 modelled in the crystal
T1 sequence (P0CB42 1-359): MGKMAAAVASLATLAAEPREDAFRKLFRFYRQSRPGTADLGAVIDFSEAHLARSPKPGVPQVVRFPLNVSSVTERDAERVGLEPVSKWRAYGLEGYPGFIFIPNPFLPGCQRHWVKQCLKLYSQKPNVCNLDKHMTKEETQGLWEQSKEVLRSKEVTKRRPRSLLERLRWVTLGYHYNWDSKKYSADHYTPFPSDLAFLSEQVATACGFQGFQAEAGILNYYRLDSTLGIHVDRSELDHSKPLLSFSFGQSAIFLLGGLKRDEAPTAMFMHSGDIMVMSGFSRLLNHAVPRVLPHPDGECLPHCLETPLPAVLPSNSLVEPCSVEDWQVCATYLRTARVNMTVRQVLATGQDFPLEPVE
Nature of the experiment: isothermal titration calorimetry. It counts as binding.

For experiment [1], the target named is T2, ALKBH1 in full length (mouse) (Mus musculus, UniProt P0CB42).
T2 construct: full length, residues 1-389, N-terminal His-tag retained, E. coli BL21(DE3), modified pRSFDuet-1
T2 sequence (P0CB42 1-389): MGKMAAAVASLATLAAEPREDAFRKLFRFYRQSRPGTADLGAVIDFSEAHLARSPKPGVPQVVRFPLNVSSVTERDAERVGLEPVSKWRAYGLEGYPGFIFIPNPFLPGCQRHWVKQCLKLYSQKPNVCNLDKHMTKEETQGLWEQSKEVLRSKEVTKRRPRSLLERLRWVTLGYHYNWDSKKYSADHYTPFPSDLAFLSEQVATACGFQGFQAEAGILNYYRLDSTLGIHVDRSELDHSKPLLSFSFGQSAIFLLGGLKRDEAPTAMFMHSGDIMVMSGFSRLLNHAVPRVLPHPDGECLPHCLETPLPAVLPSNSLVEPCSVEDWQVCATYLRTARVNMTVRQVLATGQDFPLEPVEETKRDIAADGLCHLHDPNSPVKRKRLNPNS
Nature of the experiment: isothermal titration calorimetry. The class given is binding. Background: Isothermal titration calorimetry measures the heat released or taken up as one component is titrated into another.

On to `O=C(O)CNC(=O)C(=O)O` [NOG], for which the dissociation constant Kd (commonly the concentration at which binding is half-saturated) on ALKBH1_1–359 (mouse) was 2.5 µM; in experiment [1], 1.8 µM.
